Measured values from US20150105252A1, “SUBSTITUTED PYRAZOLES AS HERBICIDES” (E I DU PONT DE NEMOURS AND COMPANY, priority 2013, published 2015).

What was measured:
[1] = tested on: johnsongrass; assay: Test C preemergence; type: in vivo, Sorghum halepense
Source text: (§1) Seeds of plant species selected from blackgrass (Alopecurus myosuroides), ryegrass, Italian (Italian ryegrass, Lolium multiflorum), wheat (winter wheat, Triticum aestivum), galium (catchweed bedstraw, Galium aparine), corn (Zea mays), crabgrass, large (large crabgrass, Digitaria sanguinalis), foxtail, giant (giant foxtail, Setaria faberii), johnsongrass (Sorghum halepense), lambsquarters (Chenopodium album), morningglory (Ipomoea coccinea), nutsedge, yellow (yellow nutsedge, Cyperus esculentus), pigweed (redroot pigweed, Amaranthus retroflexus), ragweed (common ragweed, Ambrosia elation), soybean (Glycine max), barnyardgrass (Echinochloa crus-galli), oilseed rape (Brassica napus), waterhemp (common waterhemp, Amaranthus rudis), oat, wild (wild oat, Avena fatua), kochia (Kochia scoparia), Surinam grass (Brachiaria decumbens), foxtail, green (green foxtail, Setaria viridis), goosegrass (Eleusine indica), bromegrass, downy (downy bromegrass, Bromus tectorum), nightshade (eastern black nightshade, Solanum ptycanthum), cocklebur (common cocklebur, Xanthium strumarium), cupgrass, woolly (woolly cupgrass, Eriochloa villosa), bermudagrass (Cynodon dactylon), sunflower, (common oilseed sunflower, Helianthus annuus), Russian thistle (Salsola kali), and velvetleaf (Abutilon theophrasti) were planted into a blend of loam soil and sand and treated preemergence with test chemicals formulated in a non-phytotoxic solvent mixture which included a surfactant.
(§2) At the same time, plants selected from these crop and weed species and also chickweed (common chickweed, Stellaria media), canarygrass (littleseed canarygrass, Phalaris minor), and deadnettle (henbit deadnettle, Lamium amplexicaule), were planted in pots containing Redi-Earth® planting medium (Scotts Company, 14111 Scottslawn Road, Marysville, Ohio 43041) comprising spaghnum peat moss, vermiculite, wetting agent and starter nutrients and treated with postemergence applications of test chemicals formulated in the same manner. Plants ranged in height from 2 to 18 cm (1- to 4-leaf stage) for postemergence treatments. Treated plants and controls were maintained in a greenhouse for 13 to 15 days, after which time all species were compared to controls and visually evaluated. Plant response ratings, summarized in Table C, are based on a scale of 0 to 100 where 0 is no effect and 100 is complete control. A dash (-) response means no test result.

[2] = tested on: wheat; assay: Test A preemergence; type: in vivo, Triticum aestivum; settings: preemergence; for Wheat plant response rating (0 to 100 scale): 125 g ai/ha, visual injury approx. 10 days after treatment; for Wheat plant response rating: 500 g ai/ha, visual injury after approx. 10 days, 0 to 100 scale (0 no effect, 100 complete control)
Procedure, shortened: (§3)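 Visual injury ratings, 0 = no effect to 100 = complete control, taken about 10 days after treatment against untreated controls. Test chemicals, in a non-phytotoxic surfactant-containing solvent, were sprayed onto soil preemergence or onto one- to two-leaf plants (2–10 cm) postemergence, in loam–sand soil under greenhouse conditions.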

[3] = tested on: velvetleaf; assay: Test A preemergence; type: in vivo, Abutilon theophrasti; settings: preemergence; for Velvetleaf plant response rating (0 to 100 scale): 125 g ai/ha, visual injury approx. 10 days after treatment; for Velvetleaf plant response rating: 500 g ai/ha, visual injury after approx. 10 days, 0 to 100 scale (0 no effect, 100 complete control)
Procedure, shortened: as §3

[4] = tested on: corn; assay: Test C preemergence; type: in vivo, Zea mays
Procedure, shortened: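 Visual control ratings on a 0–100 scale (100 = complete control) made against untreated controls after 13 to 15 days in greenhouse. Compounds applied in surfactant-containing solvent mixture, either preemergence to loam/sand-sown seeds or postemergence to 1- to 4-leaf plants (2–18 cm) in peat medium.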

[5] = tested on: crabgrass, large; assay: Test A preemergence; type: in vivo, Digitaria sanguinalis; settings: preemergence; for Crabgrass, Large plant response rating (0 to 100 scale): 125 g ai/ha, visual injury approx. 10 days after treatment; for Crabgrass, Large plant response rating: 500 g ai/ha, visual injury after approx. 10 days, 0 to 100 scale (0 no effect, 100 complete control)
Procedure, shortened: as §3

[6] = tested on: sedge, umbrella; assay: Test B flood; type: in vivo, Cyperus difformis; settings: 250 g ai/ha, visual rating on 0 to 100 scale (0 no effect, 100 complete control), 13 to 15 days
Procedure, shortened: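 Greenhouse assay lasting 13 to 15 days. Treatment was into water flooding pots 3 cm deep, at the 2-leaf stage, with that level sustained afterwards. Scores compare treated with control plants visually, 100 denoting complete control and 0 no effect; a dash marks no test result.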

[7] = tested on: ragweed; assay: Test C preemergence; type: in vivo, Ambrosia elation
Source text: as §1, §2

[8] = tested on: foxtail, giant; assay: Test A postemergence; type: in vivo, Setaria faberii
Procedure, shortened: as §3

[9] = tested on: wheat; assay: Test C preemergence; type: in vivo, Triticum aestivum
Source text: as §1, §2

[10] = preemergence, 31 g ai/ha, visual rating, scale 0 to 100 (0 no effect, 100 complete control), 13 to 15 days
[11] = preemergence, 62 g ai/ha, scale 0 to 100 (0 no effect, 100 complete control), 13 to 15 days
[12] = preemergence, 125 g ai/ha, 13 to 15 days, scale 0 to 100, 0 = no effect, 100 = complete control
[13] = preemergence, 250 g ai/ha, scale 0 to 100, 0 is no effect, 100 is complete control
[14] = Postemergence, 500 g ai/ha, 0 to 100 scale (0 no effect, 100 complete control)
[15] = postemergence, 125 g ai/ha, about 10 days, visual rating on 0 to 100 scale (0 no effect, 100 complete control)
[16] = Preemergence, 16 g ai/ha, scale 0 to 100

O=C(NC1CC1)c1cc(CCF)n(Cc2ccnc(C(F)(F)F)c2)n1 [Compound 176]
Johnsongrass plant response rating [1, 10]: 0
Johnsongrass plant response rating [1, 11]: 20
Plant response rating, Johnsongrass [1, 12]: 65
Johnsongrass plant response rating [1, 13]: 85
Wheat plant response rating (0 to 100 scale) [2]: 20
Wheat plant response rating [2]: 90
Velvetleaf plant response rating (0 to 100 scale) [3]: 50
Velvetleaf plant response rating [3]: 90
Corn plant response rating [4, 10]: 5
Corn plant response rating [4, 11]: 5
Plant response rating, Corn [4, 12]: 90
Corn plant response rating [4, 13]: 90
Crabgrass, Large plant response rating (0 to 100 scale) [5]: 100
Crabgrass, Large plant response rating [5]: 100
Plant response rating, Sedge, Umbrella [6]: 80
Ragweed plant response rating [7, 10]: 85
Ragweed plant response rating [7, 11]: 100
Plant response rating, Ragweed [7, 12]: 100
Ragweed plant response rating [7, 13]: 95
Foxtail, Giant plant response rating [8, 14]: 90
Foxtail, Giant plant response rating [8, 15]: 80
Wheat plant response rating [9, 10]: 0
Wheat plant response rating [9, 11]: 0
Plant response rating, Wheat [9, 12]: 5
Wheat plant response rating [9, 13]: 85

CCNC(=O)c1cc(CCF)n(Cc2ccnc(C(F)(F)F)c2)n1 [Compound 178]
Plant response rating, Johnsongrass [1, 16]: 0
Johnsongrass plant response rating [1, 10]: 0
Johnsongrass plant response rating [1, 11]: 5
Plant response rating, Johnsongrass [1, 12]: 25
Wheat plant response rating (0 to 100 scale) [2]: 0
Wheat plant response rating [2]: 30
Velvetleaf plant response rating (0 to 100 scale) [3]: 30
Velvetleaf plant response rating [3]: 90
Plant response rating, Corn [4, 16]: 5
Corn plant response rating [4, 10]: 5
Corn plant response rating [4, 11]: 5
Plant response rating, Corn [4, 12]: 25
Crabgrass, Large plant response rating (0 to 100 scale) [5]: 100
Crabgrass, Large plant response rating [5]: 100
Plant response rating, Sedge, Umbrella [6]: 85
Plant response rating, Ragweed [7, 16]: 60
Ragweed plant response rating [7, 10]: 70
Ragweed plant response rating [7, 11]: 85
Plant response rating, Ragweed [7, 12]: 90
Foxtail, Giant plant response rating [8, 14]: 90
Foxtail, Giant plant response rating [8, 15]: 70
Plant response rating, Wheat [9, 16]: 0
Wheat plant response rating [9, 10]: 0
Wheat plant response rating [9, 11]: 0
Plant response rating, Wheat [9, 12]: 0

CCCc1cc(C(=O)NOC(C)C)nn1Cc1cc(C(F)(F)F)nn1C [Compound 203]
Johnsongrass plant response rating [1, 10]: 0
Johnsongrass plant response rating [1, 11]: 0
Plant response rating, Johnsongrass [1, 12]: 40
Johnsongrass plant response rating [1, 13]: 55
Wheat plant response rating (0 to 100 scale) [2]: 80
Velvetleaf plant response rating (0 to 100 scale) [3]: 30
Corn plant response rating [4, 10]: 5
Corn plant response rating [4, 11]: 50
Plant response rating, Corn [4, 12]: 75
Corn plant response rating [4, 13]: 98
Crabgrass, Large plant response rating (0 to 100 scale) [5]: 100
Crabgrass, Large plant response rating [5]: 100
Plant response rating, Sedge, Umbrella [6]: 95
Ragweed plant response rating [7, 10]: 75
Ragweed plant response rating [7, 11]: 80
Plant response rating, Ragweed [7, 12]: 98
Ragweed plant response rating [7, 13]: 100
Foxtail, Giant plant response rating [8, 14]: 90
Foxtail, Giant plant response rating [8, 15]: 80
Wheat plant response rating [9, 10]: 40
Wheat plant response rating [9, 11]: 75
Plant response rating, Wheat [9, 12]: 90
Wheat plant response rating [9, 13]: 90
